# Measurements published in patent US7101719B2, “Support and method for cell based assays” (GE Healthcare Limited, priority 2000, dated 2006).
# Columns and labels:
# Format in all cases: cell-based
# [1] = tested on: HeLa cells; test: Parallel assay of incorporation of [35S]methionine into HeLa cells on CYTODEX/YOx Microcarriers (Example 3); details: cycloheximide 10 μM, without inhibitor 900 IODs, 'no cell' controls 650 IODs, FIG. 4
# Description: (§1) 40 mg of YOx-loaded CYTODEX™ Microcarrier beads were dispensed into suitable sterile containers and allowed to settle. The supernatant was removed from each microcarrier pellet and the beads resuspended in 5 ml of either complete Ham's F12 nutrient mix (Sigma N-4888) or DMEM (Sigma D-6546), both containing 10% FCS, 2 mM L-glutamine and 50 μg/ml streptamycin/50 IU/ml penicillin. The microcarriers were incubated at 37° C. for thirty minutes without rolling.
# (§2) 10×10^6 CHO or HeLa cells in 5 ml complete medium were added to separate microcarrier preparations and the cultures incubated at 37° C. for thirty minutes without rolling. After the initial incubation cultures were incubated overnight at 37° C. with rolling. Following the overnight incubation, unattached cells were removed and the beads resuspended in 10 ml complete culture medium. Microcarriers/cells were maintained in culture until the cell density had reached a sufficient level. Culture medium was replaced every two days.
# (§3) Cycloheximide was prepared as a 1 mM stock in phosphate buffered saline and added to the cultures at a final concentration of 10 μM. […]
# (§4) Each microcarrier preparation was allowed to settle and the growth medium removed. […] Plates were read on the LEADseeker™ Imaging System with a 5 minute exposure time to detect cellular associated methionine.
# [2] = tested on: CHO cells; test: Uptake of radiolabelled methionine into CHO cells cultured on CYTODEX/YOx Microcarriers (Example 2); details: cycloheximide 10 μM final concentration; CCD imaging; FIG. 1
# Description: CYTODEX™ and CYTODEX™/YOx Microcarrier beads were dispensed into sterile universal containers. Beads were collected by centrifugation at 100 rpm for one minute. Supernatants were removed and replaced with complete Ham's F12 nutrient mix containing 10% (v\v) FCS. Beads were incubated with rolling at 37° C. for 30 minutes. Beads were harvested by centrifugation at 100 rpm for 1 minute. Spent medium was removed and replaced with 10^7 cells in 500 μl or less. Beads plus cells were incubated at 37° C. for 20 minutes to permit cell attachment to beads. Fresh Ham's F12 medium was added to a final volume of 4 ml containing 5 mg/ml beads for [^35S] and 10 mg/ml for [^14C] or [^3H]. Beads were left to roll overnight at 37° C. Following overnight incubation, beads/cells were harvested by centrifugation at 100 rpm for 1 minute. Supernatant containing unattached cells was removed. Microcarrier beads were washed with PBS (×1) and resuspended in methionine deficient DMEM supplemented with radiolabelled methionine. Cultures were returned to 37° C. with rolling. [^3H]Methionine and [^14C] or [^35S]methionine were included at final concentrations of 8 μCi/ml and 4 μCi/ml respectively. […]
# [3] = tested on: CHO cells; test: Parallel assay of incorporation of [35S]methionine into CHO cells on CYTODEX/YOx Microcarriers (Example 3); details: cycloheximide 10 μM, without inhibitor 1700 IODs, 'no cell' controls 650 IODs, FIG. 4
# Description: as §1, §2, §3, §4
structure (smiles),measurement,setting,value
C[C@@H]1C[C@@H]([C@H](O)CC2CC(=O)NC(=O)C2)C(=O)[C@@H](C)C1 [cycloheximide],signal of [35S]methionine incorporation in the presence of protein synthesis inhibitor,[1],600 IODs
same,uptake of [35S]methionine into CHO cells,[2],inhibited
same,signal of [35S]methionine incorporation in the presence of protein synthesis inhibitor,[3],650 IODs
